According to patent publication US4255183A, “Substituted phenyl urea and herbicides for use in paddy field” (Hokko Chemical Industry Co., Ltd., priority 1977, dated 1981):
Read-outs that look alike come from different tables or passages of the source.

Assays:
[1] = tested on: Dopatrium junceum; experiment: Test Example 5: Wagner pot test, herbicidal effect on Dopatrium junceum; format: in vivo
Experimental: (§1) In a 1/7500 are Wagner pot, sieved paddy field soil (alluvial soil) was charged. Thereafter, in the center portion of the pot, 2 roots of paddy rice (Asahi species) at the 2- to 3-leaf stage were transplanted and 20 seeds of Bulrush per pot were seeded in the surface of the above soil. The pot was submerged at the depth of about 2 cm. The other Dopatrium junceum and umbrella plant were generated naturally. After seeding, when each of the weeds reached the same leaf age as defined in Table 5 given herein, a predetermined concentration of the emulsion prepared according to Example 4 was applied dropwise on the surface of the pot. The test was carried out by repeating the same test three times per area and the results were determined 20 days after the application of the chemicals with regard to the herbicidal effect and chemical injury on paddy rice on the basis of the evaluation index as shown below.
(§2) As the comparative chemicals Molinate, Benthiocarb and DCMU, those commercially available were used.
(§3) In the above table, the inhibition rate was calculated according to the method as described in Test Example 1.

[2] = tested on: Echinochloa crus-galli var. oryzicola; experiment: Test Example 2: concrete pot test on killing effect, Echinochloa crus-galli var. oryzicola; format: in vivo; details: for inhibition at 1500 g/ha / inhibition at 3000 g/ha / inhibition at 9000 g/ha: Echinochloa crus-galli, 720 h
Experimental: (§4) In a Wagner pot of 1/500 are, paddy field soil (alluvial soil) was placed and 50 seeds of Echinochloa crus-galli var. oryzicola and 30 seeds of paddy rice were seeded in the surface layer of said soil and the submerging depth was kept at about 1 cm. When Echinochloa crus-galli var. oryzicola reached at the one leaf stage and 5-leaf stage, the emulsion of a predetermined concentration, prepared according to Example 4 was added dropwise. After 30 days from the treatment with the chemical, dry weights of Echinochloa crus-galli var. oryzicola and paddy rice were measured and the inhibition rate was calculated with reference to untreated area. [formula]
(§5) In a concrete pot of 1/400 are (50 cm×50 cm), paddy field soil (alluvial soil) was placed and 200 seeds of Echinochloa crus-galli var. oryzicola were seeded in 10 surface layer of said soil and the soil was submerged at about 3 cm depth. Before emergence of Echinochloa crus-galli var. oryzicola, paddy rice at 2.5-leaf stage (Asahi species) was transplanted at the rate of 8 stubs per pot, planting 3 seedlings per stub. At the one-leaf stage (3.5 leaves stage of paddy rice) and 5 leaves stage (7 leaves stage of paddy rice) of Echinochloa crus-galli var. oryzicola, the granule prepared according to Example 1 was applied. […] 30 Days after the treatment with the chemical, examination was made in the similar manner as Test Example 1 to obtain results as shown in Table 2.
(§6) In the table, as the comparative chemicals CPN, Benthiocarb, Molinate and Simetryne, those commercially available were used and the comparative chemicals A and B (as mentioned before) used were prepared according to the process for preparing the compound of this invention.

[3] = tested on: paddy rice; experiment: Test Example 4: field test in submerged directly seeded paddy field, paddy rice; format: in vivo, paddy rice (Asahi species); details: Oryza sativa, 504 h; 300 g/10 are, emulsion, 2- to 3-leaf stage, 21 days after application
Experimental: as §4
(§7) In a 10 m^2 paddy field, 30 g of Echinochloa crus-galli var. oryzicola seeds were seeded at the time of puddling and the depth of submerging was kept at 3-5 cm. 3 Days after the puddling, 50 g of paddy rice at the emergence stage (Asahi species) were seeded. When Echinochloa crus-galli var. oryzicola and paddy rice reached a 2- to 3-leaf stage, a predetermined dose of the emulsion prepared according to Example 4 was applied uniformly by means of a manual spraying machine. Test results were examined 21 days after the application of the chemicals in the similar manner as in Test Example 1.
(§8) The comparative chemical 1 used was that commercially available and the comparative chemical 2 used was prepared according to Example 4.

[4] = tested on: paddy rice; experiment: Test Example 5: Wagner pot test, chemical injury on paddy rice; format: in vivo, paddy rice (Asahi species); further: key: 5: Completely killed; 4: Considerably injured; 3: Moderately injured; 2: A little injured; 1: Slightly injured; 0: Not injured
Experimental: as §1, §2

[5] = tested on: Umbrella plant; experiment: Test Example 5: Wagner pot test, herbicidal effect on umbrella plant; format: in vivo; details: 20 days after application
Experimental: as §1, §2, §3

[6] = tested on: Echinochloa crus-galli var. oryzicola; experiment: Test Example 4: field test in submerged directly seeded paddy field, Echinochloa crus-galli var. oryzicola; format: in vivo
Experimental: as §4, §7, §8

[7] = tested on: paddy rice; experiment: whole plant or invertebrate; format: in vivo, paddy rice (Asahi species); details: for inhibition at 1500 g/ha / inhibition at 3000 g/ha / inhibition at 9000 g/ha: Oryza sativa, 720 h
Experimental: as §4, §5, §6

[8] = tested on: Bulrush; experiment: Test Example 5: Wagner pot test, herbicidal effect on Bulrush; format: in vivo
Experimental: as §1, §2, §3

[9] = tested on: Echinochloa crus-galli var. oryzicola; experiment: Test Example 1: pot test on selectivity, inhibition of Echinochloa crus-galli var. oryzicola; format: in vivo
Experimental: as §4
(§9) The comparative chemicals used, i.e. DCMU and Linuron, were those commercially available, and the comparative chemicals A and B used were prepared according to the process for formulating the compound of this invention.

[10] = tested on: Echinochloa crus-galli var. oryzicola; experiment: Test Example 3: field test in transplanted paddy field, Echinochloa crus-galli var. oryzicola; format: in vivo; details: farm test in transplanted paddy field
Experimental: as §4
In a 10 m^2 paddy field, young seedlings of paddy rice (Asahi species) at the 2,5-leaf stage were transplanted 30 days after the puddling the submerging at the depth of 3-5 cm. 25 Days after the transplantation, when Echinochloa crus-galli var. oryzicola reached 4-leaf stage, a predetermined dose of the granule prepared according to Example 1 was applied. Test results were examined 60 days after the transplantation of paddy rice in the similar manner as in Test Example 1.
Comparative chemicals used were all those commercially available and in the case of the comparative chemical 2, CNP was applied 3 days after the transplantation of paddy rice and after 25 days a mixture of Benthiocarb and Simetryne was applied.

[11] = tested on: paddy rice; experiment: Test Example 1: pot test on selectivity, inhibition of paddy rice; format: in vivo
Experimental: as §4, with “When Echinochloa crus-galli var. oryzicola reached at the one leaf stage and 5-leaf stage, the emulsion of a predetermined concentration, prepared according to Example 4 was added dropwise.” left out
as §9

[12] = 300 g/10a, leaf age 3, 20 days after application
[13] = 600 g/10a, leaf age 3, 20 days after application
[14] = read-out: Inhibition (%) by treatment at 1-leaf stage of E. crus-galli var. oryzicola, E. crus-galli var. oryzicola
[15] = read-out: Inhibition (%) by treatment at 5-leaf stage of E. crus-galli var. oryzicola, E. crus-galli var. oryzicola
[16] = read-out: Inhibition (%) by treatment at 1-leaf stage of E. crus-galli var. oryzicola, paddy rice
[17] = read-out: Inhibition (%) by treatment at 5-leaf stage of E. crus-galli var. oryzicola, paddy rice
[18] = versus 3-(4-(3-chloro-2-butenyloxy)phenyl)-1,1-dimethyl urea

## CCSC(=O)N1CCCCCC1 [Molinate, s-ethyl hexahydro-1H-azepine-1-carbothioate]
[1]; 300 g/10a, leaf age 2, 20 days after application
  Weed kill degree, Dopatrium junceum: 2 (60-79)
[1]; [12]
  Weed kill degree, Dopatrium junceum: 4 (90-99)
[1]; 600 g/10a, leaf age 2, 20 days after application
  Weed kill degree, Dopatrium junceum: 5 (100)
[1]; [13]
  Weed kill degree, Dopatrium junceum: 5 (100)
[2]; [14]
  inhibition at 1500 g/ha: 86%
  inhibition at 3000 g/ha: 100%
  inhibition at 9000 g/ha: 100%
[2]; [15]
  inhibition at 1500 g/ha: 0%
  inhibition at 3000 g/ha: 13%
  inhibition at 9000 g/ha: 31%
[3]
  inhibition at 3000 g/ha: 12%
[4]; 300 g/10a, 3 tillers, 20 days after application
  Chemical injury on paddy rice: 0
[4]; [12]
  Chemical injury on paddy rice: 0
[4]; 600 g/10a, 3 tillers, 20 days after application
  Chemical injury on paddy rice: 0
[4]; [13]
  Chemical injury on paddy rice: 0
[5]; 300 g/10a, leaf age 2 (first group of columns)
  Weed kill degree, Umbrella plant: 1 (40-59)
[5]; 300 g/10a, leaf age 2 (second group of columns)
  Weed kill degree, Umbrella plant: 4 (90-99)
[5]; 600 g/10a, leaf age 2 (first group of columns)
  Weed kill degree, Umbrella plant: 1 (40-59)
[5]; 600 g/10a, leaf age 2 (second group of columns)
  Weed kill degree, Umbrella plant: 5 (100)
[6]; Echinochloa crus-galli, 504 h, 300 g/10 are, emulsion, 2- to 3-leaf stage, 21 days after application, read-out: Inhibition (%) of E. crus-galli var. oryzicola
  inhibition at 3000 g/ha: 83%
[7]; [16]
  inhibition at 1500 g/ha: 0%
  inhibition at 3000 g/ha: 8%
  inhibition at 9000 g/ha: 36%
[7]; [17]
  inhibition at 1500 g/ha: 0%
  inhibition at 3000 g/ha: 0%
  inhibition at 9000 g/ha: 8%
[8]; [12]
  Weed kill degree, Bulrush: 0 (less than 39)
[8]; 300 g/10a, leaf age 3-5, 20 days after application
  Weed kill degree, Bulrush: 1 (40-59)
[8]; [13]
  Weed kill degree, Bulrush: 5 (100)
[8]; 600 g/10a, leaf age 3-5, 20 days after application
  Weed kill degree, Bulrush: 2 (60-79)

## CC=CCOc1ccc(NC(=O)N(C)C)cc1 [the compound of the invention, 3-(4-crotyloxyphenyl)-1,1-dimethyl urea]
[9]; as compared with CBPDU
  power for killing Echinochloa crus-galli var. oryzicola at the 5-leaf stage: more increased
[9]; [18]
  herbicidal activity against Echinochloa crus-galli var. oryzicola at 5-leaf stage: superior
[9]; versus a compound disclosed in Japanese Pat. No. 2329/1973
  herbicidal activity against Echinochloa crus-galli var. oryzicola: superior herbicidal activity
[10]
  killing of Echinochloa crus-galli var. oryzicola not killed by conventional systematic treatment: completely killed
[11]; as compared with CBPDU
  Chemical injury on paddy rice: more decreased
[11]; [18]
  chemical injury: superior
  selectivity: selectivity over a wide range
[2]; 5-leaf stage
  killing of Echinochloa crus-galli var. oryzicola at 5-leaf stage: completely kill
[2]; compared with the known herbicides
  herbicidal activity against Echinochloa crus-galli var. oryzicola at 1-leaf stage: similarly high herbicidal activity
[6]; submerged direct seeding
  killing of Echinochloa crus-galli var. oryzicola in submerged direct seeding cultivation: selectively kill
[7]; in vivo
  Chemical injury on paddy rice: no chemical injury on paddy rice
